From patent US10433548B2, “Biocidal compositions comprising iron chelators” (Arch Chemicals, Inc., priority 2012, dated 2019) come the findings set out here.

Values after ≈ are worked out from the molar mass of the structure shown. Where two headings read alike, the source gives them in different places. Where only a bound is given, the exact number is not on record here.

Holding throughout (format): cell-based
The test system of one assay is P. acnes. The experiment in a line: Minimum Inhibitory Concentration (MIC) test, 96-well microtiter plate. The settings on record: Cutibacterium acnes. How it is done:
(§1) Activities of antimicrobial compositions of the present invention were tested against a range of typical skin microorganisms in a Minimum Inhibitory Concentration (MIC) test. MICs for the organisms were determined in a standard 96-well microtiter plate assay in Brain Heart Infusion Broth (BHI) for P. acnes; Tryptic Soy Broth (TSB) for the remaining bacteria; Ushijima Broth for M. furfur; Sabouraud Dextrose Broth (SDB) for other fungi. Samples were tested in duplicate on separate plates. For bacteria and fungi plates, samples were serially diluted into double strength media on the microtiter plates. The bacterial or fungal inocula, suspended in sterile deionized water, were then added to the wells in 1:1 ratio to the medium. The final concentration of bacteria in the wells was 5×10^5 CFUs/mL, the final concentration of fungi was 5×10^4 cells or spores/mL. Plates were incubated: anaerobically at 35° C. for 7 days for P. acnes; aerobically at 35° C. for 2 days for the remaining bacteria and aerobically at 35° C. for 7 days for M. furfur; aerobically at 28° C. for 7 days for T. mentagrophytes.

The test system of assay [1] is E. coli. The description is as above. The settings on record: Active ZPT alone or plus chelator or chelator + Zn(II); Molar Ratio HBED 10×, 8-HQ 5×, 8-HQ + Zn(II) 1×, 2-HPNO 10×. How it is done: as §1
The subject of assay [2] is E. coli. In words: Time-kill test (microbial reduction). The settings on record: E. coil; for log reduction: from initial microbial population. How it is done:
(§2) Time-kill test were performed to assess microbial reduction by antimicrobial agents, with and without chelators, against S. aureus, P. aeruginosa, and E. coli.
(§3) 100 μL of sample and 100 μL of bacterial suspension at 5×10^5 cells/mL was loaded into the first well of each row in a 96-well plate, mixed and after specific contact time, 10-fold serial dilutions were made using a multichannel pipette by transferring 20 μL into 180 μL of Letheen broth, mixing 10 times. The process was repeated. Thereafter, three replicates of 10 μL from each of the six selected dilutions were plated onto Tryptic Soy Agar using a 2-20 μL monochannel pipette. Plates were allowed to dry, then placed into an incubator at 35° C. for 24 hrs. Colonies (0.5-1 mm) were enumerated using a colony counter.

Assay [3] has as its system P. aeruginosa. The experiment in a line: Time-kill test (microbial reduction). The settings on record: for log reduction: from initial microbial population. The procedure:
as §2, §3

The next assay has as its system S. aureus. The experiment in a line: Time-kill test (microbial reduction). The following applies: for log reduction: from initial microbial population. The procedure: as §2, §3
A further assay deals with M. furfur. The experiment in a line: Minimum Inhibitory Concentration (MIC) test, 96-well microtiter plate. Also noted: unit not given here. How it is done: as §1
A further assay has as its system T. mentagrophytes. Described as above. Also noted: unit not given here. The procedure:
as §1

Assay [4] concerns P. aeruginosa. Described as above. On the set-up: unit not given here. How it is done: as §1
In another assay the test system is S. epidermidis. The description is as above. Also noted: unit not given here. The procedure:
as §1

The subject of the next assay is C. pyrenoidosa. Described as above. Also noted: unit not given here. The following applies: concentration of ZPT; ZPT alone or with potentiator, Molar Eq (Pot:ZPT) 10:1, 8-HQ-Zn 1:1.
In the next assay the test system is R. subcapitata. The description is as above. The following applies: concentration of ZPT; ZPT alone or with potentiator, Molar Eq (Pot:ZPT) 10:1, 8-HQ-Zn 1:1. On the set-up: unit not given here.
Another assay relates to C. albicans. The description is as above. The following applies: concentration of ZPT; ZPT alone or with potentiator, Molar Eq (Pot:ZPT) 10:1, 8-HQ-Zn 1:1. Also noted: unit not given here. The procedure: as §1
A further assay deals with B. subtilis. The description is as above. On the set-up: unit not given here. The settings on record: concentration of ZPT; ZPT alone or with potentiator, Molar Eq (Pot:ZPT) 10:1, 8-HQ-Zn 1:1. How it is done:
as §1

Another assay concerns A. brasiliensis. The description is as above. Also noted: unit not given here. The settings on record: concentration of ZPT; ZPT alone or with potentiator, Molar Eq (Pot:ZPT) 10:1, 8-HQ-Zn 1:1. The procedure:
as §1

The next assay concerns P. faveolarum. The description is as above. The following applies: concentration of ZPT; ZPT alone or with potentiator, Molar Eq (Pot:ZPT) 10:1, 8-HQ-Zn 1:1. Also noted: unit not given here. The procedure:
as §1

Where [5] appears, read: Active ZPT alone or plus chelator or chelator + Zn(II), Molar Ratio HBED 10×, 8-HQ 5×, 8-HQ + Zn(II) 1×, 2-HPNO 10×.
Where [6] appears, read: concentration of ZPT, ZPT alone or with potentiator, Molar Eq (Pot:ZPT) 10:1, 8-HQ-Zn 1:1.

Consider `Oc1cccc2cccnc12` [8-HQ, 8-hydroxyquinoline], for which the minimal inhibitory concentration (MIC) with P. acnes (read-out: MIC values against P. acnes, Benzoyl Peroxide) is 0.78 µg/mL (≈ 5.37 µM); in the assay on P. acnes (read-out: MIC values against P. acnes, Salicylic Acid), 0.78 µg/mL (≈ 5.37 µM). The “MIC E. Coli” value in the assay on E. coli [1] is 7.81. Further, the CFU with E. coli [2] (4 hr contact) is 8.6 × 10^5 CFUs/mL; with E. coli [2] (8 hr contact), 1.2 × 10^6 CFUs/mL; with P. aeruginosa [3] (4 hr contact), 2.6 × 10^6 CFUs/mL; in the assay with P. aeruginosa [3] (8 hr contact), 3 × 10^5 CFUs/mL; in the assay on S. aureus (4 hr contact), 1.6 × 10^5 CFUs/mL; in the assay on S. aureus (8 hr contact), 6.3 × 10^5 CFUs/mL. In addition, the log reduction in the assay on E. coli [2] (4 hr contact) was determined as 2 log; in the assay on E. coli [2] (8 hr contact) it was 2 log; in the assay with P. aeruginosa [3] (4 hr contact), 1 log; in the assay on P. aeruginosa [3] (8 hr contact) it was 3 log; in the assay with S. aureus (4 hr contact) it was 1 log; in the assay with S. aureus (8 hr contact), 2 log. Moreover, the “MIC M. furfur” value in the assay with M. furfur (setting [5]) is on record as 1.95. Further, the “MIC T. mentagrophytes” value in the assay with T. mentagrophytes (setting [5]) is 7.81. For the same compound, the “MIC P. aeruginosa” value in the assay with P. aeruginosa [4] (setting [5]) is 125. The “MIC S. epidermidis” value with S. epidermidis (setting [5]) is given as 0.49.

As to `Oc1cccc2cccnc12.[Zn]` [8-HQ-Zn, 8-hydroxyquinoline zinc salt], the “MIC C. pyrenoidsa” value in the assay with C. pyrenoidosa was determined as 0.73. For the same compound, in the assay on R. subcapitata, the “MIC R. subcapitata” value amounted to 1.95. For the same compound, the “MIC E. Coli” value in the assay with E. coli [1] is on record as 7.81. For the same compound, the “MIC C. albicans” value in the assay with C. albicans amounted to 7.81. Moreover, the “MIC M. furfur” value in the assay with M. furfur (setting [5]) and in the assay with M. furfur (setting [6]) was 1.95 throughout. The “MIC T. mentagrophytes” value in the assay on T. mentagrophytes (setting [5]) and in the assay on T. mentagrophytes (setting [6]) was 3.91 each time. The “MIC B. subtilis” value in the assay with B. subtilis was found to be 0.98. Besides, the “MIC A. brasiliensis” value in the assay on A. brasiliensis amounted to 15.63. In addition, the “MIC P. aeruginosa” value stood at 31.5 in the assay with P. aeruginosa [4] (setting [5]) and 31.25 with P. aeruginosa [4] (setting [6]). The “MIC P. faveolarum” value with P. faveolarum is 0.24. Further, the “MIC S. epidermidis” value in the assay with S. epidermidis (setting [5]) and with S. epidermidis (setting [6]) was 1.95 each time.

On to `O=C(O)CN(CCN(CC(=O)O)Cc1ccccc1O)Cc1ccccc1O.[Zn]` [HBED-Zn], for which, in the assay with C. pyrenoidosa, the “MIC C. pyrenoidsa” value was determined as 0.98. Besides, the “MIC R. subcapitata” value with R. subcapitata was determined as 0.49. Moreover, the “MIC E. Coli” value in the assay on E. coli [1] was determined as 3.91. In addition, in the assay on C. albicans, the “MIC C. albicans” value was found to be 3.91. Further, the “MIC M. furfur” value with M. furfur (setting [5]) and in the assay on M. furfur (setting [6]) was 0.98 in each case. In addition, the “MIC T. mentagrophytes” value in the assay on T. mentagrophytes (setting [5]) and with T. mentagrophytes (setting [6]) was 1.46 each time. Also, the “MIC B. subtilis” value with B. subtilis is given as 1.95. In the assay with A. brasiliensis, the “MIC A. brasiliensis” value turned out to be 7.81. Further, the “MIC P. aeruginosa” value with P. aeruginosa [4] (setting [5]) and with P. aeruginosa [4] (setting [6]) was 15.63 in each case. In addition, the “MIC P. faveolarum” value with P. faveolarum was 0.24. Moreover, the “MIC S. epidermidis” value in the assay on S. epidermidis (setting [5]) and in the assay with S. epidermidis (setting [6]) was 3.91 in each case.

Turning to zinc pyrithione [ZPT], the “MIC C. pyrenoidsa” value in the assay with C. pyrenoidosa was 0.24-4. The “MIC R. subcapitata” value in the assay with R. subcapitata is 1.95-4. Further, the “MIC E. Coli” value with E. coli [1] is reported as 1.95-7.81. Also, the CFU is recorded as >10^7 CFUs/mL with E. coli [2] (4 hr contact), >10^7 CFUs/mL in the assay with E. coli [2] (8 hr contact), 7.3 × 10^6 CFUs/mL in the assay on P. aeruginosa [3] (4 hr contact) and 6.3 × 10^6 CFUs/mL in the assay with P. aeruginosa [3] (8 hr contact). For the same compound, the log reduction in the assay on E. coli [2] (4 hr contact) was 0 log; in the assay on E. coli [2] (8 hr contact) it was 0 log; in the assay on P. aeruginosa [3] (4 hr contact), 1 log; in the assay on P. aeruginosa [3] (8 hr contact), 2 log; with S. aureus (4 hr contact), 1 log; in the assay with S. aureus (8 hr contact), 2 log. In the assay on C. albicans, the “MIC C. albicans” value worked out at 7.81. Also, the entries for the “MIC M. furfur” value in the assay with M. furfur (setting [5]) and in the assay with M. furfur (setting [6]) were 1.25-1.95 and 0.98-4, respectively. Moreover, the “MIC T. mentagrophytes” value is on record as 3.91-5 with T. mentagrophytes (setting [5]) and 3.91-8 in the assay on T. mentagrophytes (setting [6]). The “MIC B. subtilis” value with B. subtilis is on record as 1.95-4. Also, the “MIC A. brasiliensis” value in the assay on A. brasiliensis is 7.81-15.6. In addition, the “MIC P. aeruginosa” value in the assay with P. aeruginosa [4] (setting [5]) was 31.25-62.5; in the assay on P. aeruginosa [4] (setting [6]), 31-62. In addition, the “MIC P. faveolarum” value with P. faveolarum is recorded as 0.05-2. Also, the “MIC S. epidermidis” value in the assay with S. epidermidis (setting [5]) and in the assay on S. epidermidis (setting [6]) was 1.95-7.8 in each case.
